Experimental data: patent US20090227619A1, “Harmine derivatives, intermediates used in their preparations, preparation processes and use therefo” (priority 2003, published 2009)
pIC50: −log10 of the molar value. Where two headings read alike, the source gives them in different places.

Columns and labels:
[1] = in vivo; conditions: both, Kunming, mouse, ip
[2] = tested on: PLA-801; assay: In vitro cytotoxicity, IC50 by MTT method, PLA-801; type: cell-based; conditions: PLA-801, MTT; read-out: IC50
Summary of the method: (§1)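 MTT viability, 48 h exposure: cells 10^5/ml in RPMI1640 + 10% FBS, 37 °C/5% CO2; MTT 4 h, DMSO solubilisation, A490.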

[3] = tested on: HepG2; assay: In vitro cytotoxicity, IC50 by MTT method, HepG2; type: cell-based, human; conditions: Homo sapiens; HepG2, MTT; read-out: IC50
Summary of the method: as §1

[4] = tested on: S180 sarcoma; conditions: S180 sarcoma; for Body weight of the animals, beginning, First time / Body weight of the animals, end, First time / Inhibition rate, First time / Weight of the tumor X ± SD, First time / Body weight of the animals, beginning, Second time / Body weight of the animals, end, Second time / Inhibition rate, Second time: ip × 10qd; for Inhibition rate (%) S180 sarcomata: comparison table 43, in vivo
Excerpt: There was one group of 8 to 10 mice C57BL/6 and Kunming mice for the anti-tumor tests and two groups of mice for negative control.
(3) Sources of tumors: Lewis lung cancer cells and S180 sarcoma in mice, which were sub-cultured and maintained by Pharmacological Center of Shanghai Pharmaceutical Industrial Research Institute.
All samples were weighed and added a small amount of Tween-80 to facilitate dissolution during the experiment, and then 0.5% CMC-Na solution was gradually added to achieve the desired concentration. The volume for experiment was 0.5 ml/20 g mouse.
The medicaments were intraperitoneally administered once a day continuously for 10 days.
For the negative control group, a vehicle of the same volume was intraperitoneally administered once a day continuously for 10 days. For the positive control group, CTX was administered in the dosage of 30 mg/kg once a day continuously for 7 days.
In vivo anti-tumor subcutaneous vaccination in the axilla was employed. Wildly grown tumor source was taken under sterile conditions to form a cell suspension of about 1×10^7 ml by homogenization method. For a corresponding mouse host, the suspension was injected in the axilla in an amount of 0.2 ml/mouse. The next day, the medicaments were administered according to the design of the tests. About three weeks later, all the groups of animals were executed. The tumors were taken from the animals and weighed. The inhibition rate of tumors was calculated according to the following formula:
T: average tumor weight of treated group; C: average tumor weight of negative control group.

[5] = tested on: Bel-7402; assay: In vitro cytotoxicity, IC50 by MTT method, Bel-7402; type: cell-based; conditions: Homo sapiens, Bel-7402; BeI7402, MTT; read-out: IC50
Summary of the method: as §1

[6] = tested on: Hela; assay: In vitro cytotoxicity, IC50 by MTT method, Hela; type: cell-based; conditions: Homo sapiens; Hela, MTT; read-out: IC50
Summary of the method: as §1

[7] = tested on: Kunming mice; conditions: for Death rate: single i.p.
[8] = tested on: Lewis lung cancer; conditions: Lewis lung cancer; for Body weight of the animals, end, First time / Body weight of the animals, end, Second time: ip × 10qd; for Inhibition rate (%) Lewis cancer: comparison table 43, in vivo;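 for all read-outs here: mice implanted subcutaneously in the axilla with Lewis lung tumor cells, treated starting the following day, killed roughly three weeks after implantation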
[9] = tested on: NIH3T3; assay: In vitro cytotoxicity, IC50 by MTT method, NIH3T3; type: cell-based; conditions: Mus musculus; NIH3T3, MTT; read-out: IC50
Summary of the method: as §1

[10] = tested on: BGC-823; assay: In vitro cytotoxicity, IC50 by MTT method, BGC-823; type: cell-based; conditions: Homo sapiens, BGC-823; BGC823, MTT; read-out: IC50
Summary of the method: as §1

[11] = tested on: Lovo; assay: In vitro cytotoxicity, IC50 by MTT method, Lovo; type: cell-based; conditions: Homo sapiens; Lovo, MTT; read-out: IC50
Summary of the method: as §1

[12] = 50% male 50% female mice, 240 mg/kg
[13] = 50% male 50% female mice, 300 mg/kg
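Throughout, for Death rate: acute toxicity in Kunming mice grouped by sex, one intraperitoneal dose at five graded levels in Tween-80 plus 0.5% CMC-Na, deaths monitored over two weeks.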
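Throughout, for LD50: acute toxicity in Kunming mice grouped by sex, one intraperitoneal dose at five graded levels in Tween-80 plus 0.5% CMC-Na, deaths monitored over two weeks.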
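Throughout, for MTD: acute toxicity in Kunming mice grouped by sex, one intraperitoneal dose at five graded levels in Tween-80 plus 0.5% CMC-Na, deaths monitored over two weeks.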
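Throughout, for Sex: acute toxicity in Kunming mice grouped by sex, one intraperitoneal dose at five graded levels in Tween-80 plus 0.5% CMC-Na, deaths monitored over two weeks.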

CCOC(=O)c1cc2c([nH]c3ccccc32)c(C)n1 [Compound 11, ethyl 1-methyl-β-carboline-3-carboxylate]
LD50 at 2 weeks [1]: 183 mg/kg | pIC50 [2]: 3.59 | pIC50 [3]: 4.05 | Body weight of the animals, beginning, First time ([4]; Dosage 25 (mg/ml)): 19.5 g | Body weight of the animals, end, First time ([4]; Dosage 25 (mg/ml)): 26.3 g | Inhibition rate, First time ([4]; Dosage 25 (mg/ml)): 34.74% | Weight of the tumor X ± SD, First time ([4]; Dosage 25 (mg/ml)): 1.86 ± 0.18 g | Body weight of the animals, beginning, Second time ([4]; Dosage 25 (mg/ml)): 20.4 g | Body weight of the animals, end, Second time ([4]; Dosage 25 (mg/ml)): 24.2 g | Inhibition rate, Second time ([4]; Dosage 25 (mg/ml)): 31.93% | Weight of the tumor X ± SD, Second time ([4]; Dosage 25, ip × 10qd): 1.94 ± 0.16 g | Body weight of the animals, beginning, First time ([4]; Dosage 50 (mg/ml)): 19.5 g | Body weight of the animals, end, First time ([4]; Dosage 50 (mg/ml)): 25.9 g | Inhibition rate, First time ([4]; Dosage 50 (mg/ml)): 44.21% | Weight of the tumor X ± SD, First time ([4]; Dosage 50 (mg/ml)): 1.59 ± 0.16 g | Body weight of the animals, beginning, Second time ([4]; Dosage 50 (mg/ml)): 20.6 g | Body weight of the animals, end, Second time ([4]; Dosage 50 (mg/ml)): 23.9 g | Inhibition rate, Second time ([4]; Dosage 50 (mg/ml)): 43.16% | Weight of the tumor X ± SD, Second time ([4]; Dosage 50, ip × 10qd): 1.62 ± 0.38 g | Inhibition rate (%) S180 sarcomata [4]: 44.21% | pIC50 [5]: 3.64 | pIC50 [6]: 4.00 | Death rate [7, 12]: 90 | Death rate [7, 13]: 100 | Death rate ([7]; female mice, 240 mg/kg): 100 | Death rate ([7]; female mice, 300 mg/kg): 100 | Death rate ([7]; male mice, 240 mg/kg): 80 | Death rate ([7]; male mice, 300 mg/kg): 100 | LD50 ([7]; mouse, in vivo, ip): 159 to 211 mg/kg | Body weight of the animals, end, First time ([8]; Dosage 25 (mg/ml)): 23.4 g | Body weight of the animals, end, Second time ([8]; Dosage 25 (mg/ml)): 24.5 g | Body weight of the animals, beginning, First time ([8]; Dosage 25, ip × 10qd): 18.7 g | Inhibition rate, First time ([8]; Dosage 25, ip × 10qd): 29.08% | Weight of the tumor X ± SD, First time ([8]; Dosage 25, ip × 10qd): 1.78 ± 0.16 g | Body weight of the animals, beginning, Second time ([8]; Dosage 25, ip × 10qd): 19.9 g | Inhibition rate, Second time ([8]; Dosage 25, ip × 10qd): 33.05% | Weight of the tumor X ± SD, Second time ([8]; Dosage 25, ip × 10qd): 1.58 ± 0.09 g | Body weight of the animals, end, First time ([8]; Dosage 50 (mg/ml)): 23.0 g | Body weight of the animals, end, Second time ([8]; Dosage 50 (mg/ml)): 23.8 g | Body weight of the animals, beginning, First time ([8]; Dosage 50, ip × 10qd): 18.3 g | Inhibition rate, First time ([8]; Dosage 50, ip × 10qd): 44.22% | Weight of the tumor X ± SD, First time ([8]; Dosage 50, ip × 10qd): 1.40 ± 0.16 g | Body weight of the animals, beginning, Second time ([8]; Dosage 50, ip × 10qd): 19.8 g | Inhibition rate, Second time ([8]; Dosage 50, ip × 10qd): 42.8% | Weight of the tumor X ± SD, Second time ([8]; Dosage 50, ip × 10qd): 1.35 ± 0.14 g | Inhibition rate (%) Lewis cancer [8]: 44.22% | pIC50 [9]: 4.00 | pIC50 [10]: 3.96 | pIC50 [11]: 4.10

COC(=O)c1cc2c([nH]c3ccccc32)c(-c2ccc(O)cc2)n1 [Compound 16, methyl 1-(4-hydroxyphenyl)-β-carboline-3-carboxylate]
MTD at 2 weeks [1]: 240 mg/kg | pIC50 [2]: 2.99 | pIC50 [3]: < 2.30 | Inhibition rate (%) S180 sarcomata [4]: 32.96% | pIC50 [5]: 2.97 | pIC50 [6]: 3.82 | Death rate [7, 12]: 0 | Death rate [7, 13]: 30 | Sex ([7]; both, Kunming, mouse, in vivo, ip, 2 weeks): 240 | Death rate ([7]; female mice, 240 mg/kg): 0 | Death rate ([7]; female mice, 300 mg/kg): 40 | Death rate ([7]; male mice, 240 mg/kg): 0 | Death rate ([7]; male mice, 300 mg/kg): 20 | Inhibition rate (%) Lewis cancer [8]: 37.86% | pIC50 [9]: 2.66 | pIC50 [10]: 3.01 | pIC50 [11]: 3.21
